# Results taken from patent US11214540B2, “Compositions for treating neurodegenerative diseases” (COGNITION THERAPEUTICS, INC., priority 2017, dated 2022).
# Tested on: Abeta oligomer-induced membrane trafficking deficits in primary hippocampal neurons
# Test: Membrane Trafficking/Exocytosis (MTT) assay, Abeta oligomer effect on neurons;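 on EC50 Abeta: compound potency for inhibiting the Abeta oligomer effect on exocytosis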
# Type: cell-based, rat
# Conditions: AD brain-derived Abeta oligomers
# Procedure: Compounds according to any embodiment described herein, were tested for their ability to inhibit an amyloid beta effect on the cells. The compounds generally were able to inhibit the amyloid beta effect as measured by a membrane trafficking/exocytosis assay (MTT assay). The rationale for this assay was as follows:
# The present exocytosis assay was adapted for use with mature primary neuronal cultures grown for 3 weeks in vitro. See WO 2011/106785, which is incorporated herein by reference in its entirety. Abeta oligomers cause a dose-dependent decrease in the amount of intracellular vesicles (puncta) filled with reduced purple formazan as measured via image processing using a Cellomics VTI automated microscopy system. […] Increasing the amount of Abeta oligomers eventually results in overt toxicity. Thus, the concentration of neuroactive Abeta oligomers used in the assay is much lower than that causing cell death. […] When configured in this manner, the assay is able to detect compounds that inhibit nonlethal effects of Abeta oligomer whether these compounds act via disruption of oligomers, inhibition of oligomer binding to neurons, or counteraction of signal transduction mechanisms of action initiated by oligomer binding.
# Primary hippocampal neurons from E18 Sprague-Dawley rat embryos were plated at optimized concentrations in 384 well plates in NB media (Invitrogen). Neurons were maintained in cultures for 3 weeks, with twice weekly feeding of NB media with N2 supplement (Invitrogen).
# A test compound was added to cells at concentrations ranging from 100 uM to 0.001 nM followed by addition of vehicle or Abeta oligomer preparations (3 μM total Abeta protein concentration), and incubated for 1 to 24 hr at 37° C. in 5% CO2. MTT reagent (3-(4,5-dimethylthizaol-2yl)-2,5diphenyl tetrazolium bromide) (Roche Molecular Biochemicals) was reconstituted in phosphate buffered saline to 5 mg/mL. 10 μL of MTT labeling reagent is added to each well and incubated at 37° C. for 1 h, then imaged. Exocytosis was assessed by automated microscopy and image processing to quantify the amount of endocytosed and exocytosed formazan.
# Each assay plate was formatted so that compounds are tested with and without Abeta oligomer on each plate. This design eliminates toxic or metabolically active compounds early on in the screening cascade (at the level of the primary screen). Reduced formazan was first visible in intracellular vesicles. Eventual formazan exocytosis was accelerated via Abeta oligomers.
# Human amyloid peptide 1-42 was obtained from a number of commercial vendors such as California Peptide, with lot-choice contingent upon quality control analysis. Quality controls of oligomer preparations consist of Westerns to determine oligomer size ranges and relative concentrations, and the MTT assay to confirm exocytosis acceleration without toxicity. Toxicity was monitored in each image-based assay via quantification of nuclear morphology visualized with the DNA binding blue dye DAPI (Invitrogen). Nuclei that are fragmented are considered to be in late stage apoptosis (Majno and Joris '95) and the test would be rejected. Peptide lots producing unusual peptide size ranges or significant toxicity at a standard 1.5 μM concentration on neurons would also be rejected.
# Data handling and analysis were accomplished by Cellomics VTI image analysis software and STORE automated database software. Because of the low dynamic range and neuronal well-to-well variability after three weeks in culture, statistical comparisons are made via pairwise Tukey-Kramer analysis to determine the significance of the separation between compound+Abeta oligomers from Abeta alone, and between compound alone from vehicle. The ability of mature primary neurons to more closely approximate the electrophysiologically mediated signal transduction network of the adult brain justifies this screening strategy. […]
row,Compound,effect on membrane trafficking deficits induced by AD brain-derived Abeta oligomers
1,"COc1cc(CCC(C)NCc2ccc(C(F)(F)F)cc2)ccc1O (stereo not shown) [4-(3-(4-(trifluoromethyl)benzylamino)butyl)-2-methoxyphenol, reference compound]",eliminates the membrane trafficking deficits

# Same assay, conditions: Abeta oligomers dosed alone on neurons; read-out: EC50 in the membrane trafficking assay
row,Compound,EC50 [µM]
1,"Synthetic Abeta oligomers: Abeta 1-42 oligomers made according to published methods, used as positive controls [reference compound]",0.82

# Same assay, conditions: membrane trafficking; read-out: EC50 Abeta
row,Compound,EC50 [µM]
1,CC(C)=CC(CC(C)(C)c1ccc(N2CCOCC2)cc1)N1CCC(C2CCOCC2)CC1 (stereo not shown) [Compound 149],20
2,COC[C@H]1CCCN1C(C)CC(C)(C)c1ccc(Cl)cc1 (stereo partly shown) [Compound 253],0.25
3,CC(C)=CC(CC(C)(C)c1ccc(Cl)cc1)N1CCC(N2CCCCC2)CC1 (stereo not shown) [Compound 146],0.025
4,CC(C)=CC(CC(C)(C)c1ccc(F)cc1)N1CCN(C(=O)C2CC2)CC1 (stereo not shown) [Compound 151],20
5,CC(C)=CC(CC(C)(C)c1ccc(F)cc1)N1CCC(C)(C)CC1 (stereo not shown) [Compound 131],20
6,CC(CC(C)(C)c1ccc(Cl)cc1)N1CCC(O)C1 (stereo not shown) [Compound 255],15

# Same assay, conditions: substance alone, no Abeta oligomer
row,Compound,effect on trafficking when dosed in the absence of Abeta
1,"COc1cc(CCC(C)NCc2ccc(C(F)(F)F)cc2)ccc1O (stereo not shown) [4-(3-(4-(trifluoromethyl)benzylamino)butyl)-2-methoxyphenol, reference compound]",does not affect trafficking

# Tested on: not listed separately
# Test: log P
# Type: physicochemical
# Conditions: not given
# Text: The term “log P” refers to the partition coefficient of a compound. The partition coefficient is the ratio of concentrations of un-ionized compound in each of two solution phases, for example, octanol and water. To measure the partition coefficient of ionizable solute compounds, the pH of the aqueous phase is adjusted such that the predominant form of the compound is un-ionized. The logarithm of the ratio of concentrations of the un-ionized solute compound in the solvents is called log P. The log P is a measure of lipophilicity. For example, log Poct/wat=log([solute]octanol/[solute]un-ionized,water).
# Combined Results for particular compounds described herein, with respect to log P, membrane trafficking (uM), sigma-2 receptor affinity, sigma-1 receptor affinity microsomal stability in mouse liver microsomes (MLM) (t1/2, min), t1/2 normalized to CT)10914 and in vitro toxicity potassium channel hERG (IC50, nM) are provided in Table 1: […]
row,log P,Compound
1,4.08,COC(=O)[C@H]1CCCN1CCC(C)(C)c1ccc(Cl)cc1 [Compound 290]
2,4.26,COC[C@@H]1CCCN1CCC(C)(C)c1ccc(Cl)cc1 [Compound 289]
3,5.58,CCOC(=O)N1CCN(C(C=C(C)C)CC(C)(C)c2ccc(C(F)(F)F)cc2)CC1 (stereo not shown) [Compound 208]
4,4.95,COC(=O)N1CCN(C(C=C(C)C)CC(C)(C)c2ccc(Cl)cc2)CC1 (stereo not shown) [Compound 197]
5,3.67,COCCNC(C=C(C)C)C(C)(C)Oc1ccc(F)cc1 (stereo not shown) [Compound 174]
6,3.65,COC[C@H]1CCCN1CCC(C)(C)c1ccccc1 [Compound 300]
7,4.6,CC(C)=CC(NCC1CCOCC1)C(C)(C)Oc1ccc(Cl)cc1 (stereo not shown) [Compound 165]
8,1.81,COc1cc(CCC(C)(C)N2Cc3cccc(C(=O)N4CCN(C(=O)CN)CC4)c3C2)ccc1O [Compound 270]
9,3.99,CC(C)=CC(NCC1CCOCC1)C(C)(C)Oc1ccccc1 (stereo not shown) [Compound 166]
10,3.8,COC[C@@H]1CCCN1CCC(C)(C)c1ccc(F)cc1 [Compound 319]
11,4.57,CC(C)=C[C@@H](CC(C)(C)c1ccc(F)cc1)N1CCC[C@@H]1CO [Compound 241]
12,4.81,CC(C)(CCN1CCC(O)(c2ccccc2)CC1)c1ccc(Cl)cc1 [Compound 285]
13,4.09,CC(C)=CC(CC(C)(C)c1ccc(C(F)(F)F)cc1)N1CCN(S(=O)(=O)N(C)C)CC1 (stereo not shown) [Compound 207]
14,5.42,CC(C)=CC(NCC(C)C)C(C)(C)Oc1ccc(Cl)cc1 (stereo not shown) [Compound 177]
15,4.95,COC[C@@H]1CCCN1C(C)CC(C)(C)c1ccc(C(F)(F)F)cc1 (stereo partly shown) [Compound 276]
16,6.19,CC(C)=CC(CC(C)(C)c1ccc(Cl)cc1)N1CCN(C(=O)c2ccccc2)CC1 (stereo not shown) [Compound 157]
17,3.98,CC(C)(CCN1CCC(CCO)CC1)c1ccc(Cl)cc1 [Compound 284]
18,2.49,CC(C)(CCN1CC[C@@H](O)C1)c1ccccc1 [Compound 301]
19,3.6,COC(=O)C1CCN(CCC(C)(C)c2ccc(F)cc2)CC1 [Compound 326]
20,5.07,COCCCC1CCN(CCC(C)(C)c2ccc(Cl)cc2)CC1 [Compound 324]
21,4.63,COCCCC1CCN(C(C=C(C)C)COc2ccc(F)cc2)CC1 (stereo not shown) [Compound 190]
22,3.24,COc1cc(CCC(C)(C)N2Cc3cccc(C(=O)N4CCN(C(=O)[C@@H]5CCCN5C)CC4)c3C2)ccc1O [Compound 274]

# The next lines start with the compound.
row,Compound,log P
1,CC(C)=CC(CC(C)(C)c1ccc(N2CCOCC2)cc1)N1CCC(C2CCOCC2)CC1 (stereo not shown) [Compound 149],5.59
2,COC[C@H]1CCCN1C(C)CC(C)(C)c1ccc(Cl)cc1 (stereo partly shown) [Compound 253],4.67
3,CC(C)=CC(CC(C)(C)c1ccc(Cl)cc1)N1CCC(N2CCCCC2)CC1 (stereo not shown) [Compound 146],6.14
4,CC(C)=CC(CC(C)(C)c1ccc(F)cc1)N1CCN(C(=O)C2CC2)CC1 (stereo not shown) [Compound 151],4.65
5,CC(C)=CC(CC(C)(C)c1ccc(F)cc1)N1CCC(C)(C)CC1 (stereo not shown) [Compound 131],6.24
6,COCCC1(O)CCN(C(C=C(C)C)CC(C)(C)c2ccccc2)CC1 (stereo not shown) [Compound 219],3.91
7,COc1cc(CCC(C)(C)N2Cc3cccc(C(=O)N4CCN(C(=O)[C@H](C)N)CC4)c3C2)ccc1O [Compound 269],2.2
8,CC(C)=CC(CC(C)(C)c1ccc(F)cc1)N1CCC(O)(c2ccccc2)CC1 (stereo not shown) [Compound 221],5.76
9,CC(C)=CC(NCC(C)C)C(C)(C)Oc1ccccc1 (stereo not shown) [Compound 173],4.81
10,COc1cc(CCC(C)(C)N2Cc3cccc(C(=O)N4CCN(C(=O)[C@@H]5CCCN5)CC4)c3C2)ccc1O [Compound 260],2.46
11,CC(C)=CC(CC(C)(C)c1ccc(Cl)cc1)N1CCC[C@H]1CO (stereo partly shown) [Compound 237],5.04
12,CCOC(=O)C1CCN(CCC(C)(C)c2ccc(C(F)(F)F)cc2)CC1 [Compound 311],4.69
13,COC[C@@H]1CCCN1C(C=C(C)C)CC(C)(C)c1ccc(C(F)(F)F)cc1 (stereo partly shown) [Compound 275],5.95
14,COc1cc(CCC(C)(C)N2Cc3cccc(C(=O)N4CCN(C(=O)[C@@H](Cc5ccccc5)NC(C)=O)CC4)c3C2)ccc1O [Compound 280],3.85
15,CC(C)=CC(CC(C)(C)c1ccc(S(C)(=O)=O)cc1)N1CCC(C(C)C)CC1 (stereo not shown) [Compound 89],5.37
16,COc1ccc(C(C)(C)CC(c2ccccc2)N2CCCCC2)cc1 (stereo not shown) [Compound 116],5.71

row,Compound,log P
1,COC[C@H]1CCCN1C(C=C(C)C)CC(C)(C)c1ccc(F)cc1 (stereo partly shown) [Compound 251],5.22
2,COc1cc(CCC(C)(C)N2Cc3cccc(C(=O)N4CCN(C(=O)[C@@H]5CCCN5C(C)=O)CC4)c3C2)ccc1O [Compound 282],2.47
3,CC1(O)CCN(CCC(C)(C)c2ccccc2)CC1 [Compound 296],2.83
4,COC[C@H]1CCCN1CCC(C)(C)c1ccc(C(F)(F)F)cc1 [Compound 312],4.53
5,COC[C@H]1CCCN1CCC(C)(C)c1ccc(Cl)cc1 [Compound 298],4.26
6,COCCOCCC1CCN([C@H](C=C(C)C)CC(C)(C)c2ccc(C(F)(F)F)cc2)CC1 [Compound 263],6.28
7,COCCOCCC1CCN(CCC(C)(C)c2ccc(C(F)(F)F)cc2)CC1 [Compound 314],4.85
8,COc1cc(CCC(C)(C)N2Cc3cccc(C(=O)N4CCN(C(=O)OCc5oc(=O)oc5C)CC4)c3C2)ccc1O [Compound 309],3.96
9,CCCCC1(O)CCN(C(C=C(C)C)CC(C)(C)c2ccc(F)cc2)CC1 (stereo not shown) [Compound 222],5.81
10,CC(C)=CC(CC(C)(C)c1ccc(Cl)cc1)N1CCC(O)(c2ccccc2)CC1 (stereo not shown) [Compound 211],6.23
11,CC(C)(CCN1CCC(C)(c2ccccc2)CC1)c1ccc(F)cc1 [Compound 316],4.34
12,CC(C)=C[C@H](CC(C)(C)c1ccc(Cl)cc1)N1CCC[C@@H]1CO [Compound 240],5.04
13,CC(C)(CC(c1ccccc1)N1CCOCC1)c1ccc(Cl)cc1 (stereo not shown) [Compound 120],5.4
14,CC(C)=CC(CC(C)(C)c1ccc(OC(C)C)cc1)N1CCC(O)CC1 (stereo not shown) [Compound 178],4.59
15,CCOC(=O)C1CCN(CCC(C)(C)c2ccccc2)CC1 [Compound 299],3.81

# Same assay, conditions: octanol/water
row,Compound,logP
1,COC1CCN(CCC(C)(C)c2ccc(C(F)(F)F)cc2)CC1 [Example 191],4.07
2,CC(C)(CCN1CCC(O)(c2ccccc2)CC1)c1ccc(C(F)(F)F)cc1 [Example 307],5.08
